From patent publication US4250170A, “Antibacterial agents Bu-2349A and B and method of using same” (Bristol-Myers Company, priority 1979, dated 1981)
Converted amounts (≈) assume the structure as drawn.

Columns and labels:
[1] = tested on: Streptococcus pneumoniae (Dp-4); assay: MIC, two-fold agar dilution; format: cell-based; conditions: 18 h, Table 3, GC agar, 10^-2 dilution
[2] = tested on: Neisseria gonorrhoeae (Ng-1); assay: MIC, two-fold agar dilution; format: cell-based; conditions: 18 h, Table 3, GC agar, 10^-2 dilution
[3] = tested on: Proteus stuartii (Ps-2), AAC(2'); assay: MIC, two-fold agar dilution; format: cell-based; conditions: 18 h; Table 3; Mueller-Hinton agar, 10^-4 dilution; enzyme AAC(2')
Mycobacterium 607 (M6-1) = assay: MIC, two-fold agar dilution; format: cell-based; conditions: 18 h, Table 3, Mueller-Hinton agar, 10^-4 dilution
[4] = tested on: Streptococcus viridans (Sv-1); assay: MIC, two-fold agar dilution; format: cell-based; conditions: 18 h, Table 3, GC agar, 10^-2 dilution
[5] = tested on: Staphylococcus aureus (Sa-77), ANT(4'); assay: MIC, two-fold agar dilution; format: cell-based; conditions: 18 h
[6] = tested on: Mycobacterium phlei D88 (Mp-1); assay: MIC, two-fold agar dilution; format: cell-based; conditions: Mycolicibacterium phlei, 18 h; Table 3; Mueller-Hinton agar, 10^-4 dilution
[7] = tested on: Escherichia coli NIHJ (Ec-1); assay: MIC, two-fold agar dilution; format: cell-based; conditions: 18 h, Table 3, Mueller-Hinton agar, 10^-4 dilution
[8] = tested on: Enterobacter cloacae (El-35), AAC(3)-3; assay: MIC, two-fold agar dilution; format: cell-based; conditions: 18 h, Table 3, Mueller-Hinton agar, 10^-4 dilution, enzyme AAC(3)-3
[9] = tested on: Staphylococcus aureus Terajima (Sa-33); assay: MIC, two-fold agar dilution; format: cell-based; conditions: 18 h, Table 3, Mueller-Hinton agar, 10^-4 dilution
[10] = tested on: Neisseria meningitidis (Nm-1); assay: MIC, two-fold agar dilution; format: cell-based; conditions: 18 h, Table 3, GC agar, 10^-2 dilution
[11] = tested on: Klebsiella pneumoniae (Kp-33), AAC(3)-3; assay: MIC, two-fold agar dilution; format: cell-based; conditions: 18 h, Table 3, Mueller-Hinton agar, 10^-4 dilution, enzyme AAC(3)-3
[12] = tested on: Escherichia coli (Ec-9), AAC(6')-1; assay: MIC, two-fold agar dilution; format: cell-based; conditions: 18 h, Table 3, Mueller-Hinton agar, 10^-4 dilution, enzyme AAC(6')-1
[13] = tested on: Hemophylus influenzae (He-2); assay: MIC, two-fold agar dilution; format: cell-based; conditions: 18 h; Table 3; GC agar, 10^-2 dilution
[14] = tested on: Mycobacterium ranae ATCC 110 (Mr-1); assay: MIC, two-fold agar dilution; format: cell-based; conditions: ATCC110, 18 h, Table 3, Mueller-Hinton agar, 10^-4 dilution
solubility = format: physicochemical; conditions: hydrochloride salt
[15] = tested on: Serratia marcescens (Sm-2); assay: MIC, two-fold agar dilution; format: cell-based; conditions: 18 h, Table 3, Mueller-Hinton agar, 10^-4 dilution
[16] = tested on: Escherichia coli (Ec-62), AAC(3)- 1; assay: MIC, two-fold agar dilution; format: cell-based; conditions: 18 h, Table 3, Mueller-Hinton agar, 10^-4 dilution, enzyme AAC(3)- 1
[17] = tested on: gram-positive and gram-negative bacteria; assay: in vitro antibacterial activity, overall statements; format: cell-based
Experimental: (§1) The minimum inhibitory concentrations (MIC) of Bu-2349A and B were determined against a wide variety of bacteria by the two-fold agar dilution method. Mueller-Hinton agar medium was generally used for the determination of bacterial MIC except for species of Streptococcus, Neisseria and Hemophilus for which Gonococcus agar medium (GC agar, Nissui Co., Tokyo) was used. Gifu anaerobe agar medium (GAM agar, Eiken Co., Tokyo) was used for anaerobic bacteria. The MIC's were determined after overnight incubation at 37° C. with an initial inoculum equivalent to a 10^-4 dilution of an 18-hour culture for the aerobic and anaerobic bacteria, except for Streptococcus, Neisseria and Hemophilus for which a 10^-2 dilution was used.
(§2) The influence of inoculum size on MIC was tested on Mueller-Hinton agar using an inoculum of […], 10^-2 or 10^-4 dilution of the overnight culture of test organisms.
(§3) The effect of media pH on the MIC's of Bu-2349A was determined at three pH levels (6, 7 and 8) using Mueller-Hinton agar.
(§4) The media effect on the MIC's of Bu-2349A was tested using four kinds of assay media: Mueller-Hinton agar (MHA), nutrient agar (NA), heart infusion agar (HIA) and brain heart infusion agar (BHIA). The pH was adjusted at 7 and a 10^-4 dilution of overnight culture was used for the inoculum.

[18] = tested on: Streptococcus pyogenes (Sp-3); assay: MIC, two-fold agar dilution; format: cell-based; conditions: 18 h, Table 3, GC agar, 10^-2 dilution
[19] = tested on: Escherichia coli (Ec-49), APH(3')-2; assay: MIC, two-fold agar dilution; format: cell-based; conditions: 18 h, Table 3, Mueller-Hinton agar, 10^-4 dilution, enzyme APH(3')-2
[20] = tested on: Staphylococcus epidermidis (Si-2), ANT (4'); assay: MIC, two-fold agar dilution; format: cell-based; conditions: 18 h, Table 3, Mueller-Hinton agar, 10^-4 dilution, enzyme ANT (4')
[21] = tested on: Staphylococcus aureus Smith (Sa-2); assay: MIC, two-fold agar dilution; format: cell-based; conditions: 18 h, Table 3, Mueller-Hinton agar, 10^-4 dilution
[22] = tested on: Escherichia coli (Ec-72), ANT(2"); assay: MIC, two-fold agar dilution; format: cell-based; conditions: 18 h, Table 3, Mueller-Hinton agar, 10^-4 dilution, enzyme ANT(2")
[23] = tested on: Klebsiella pneumoniae (Kp-2); assay: MIC, two-fold agar dilution; format: cell-based; conditions: 18 h, Table 3, Mueller-Hinton agar, 10^-4 dilution, read-out: MIC
Experimental: as §1, §2, §3, §4

[24] = tested on: Bacillus subtilis PCI 219 (Bs-1); assay: MIC, two-fold agar dilution; format: cell-based; conditions: 18 h, Table 3, Mueller-Hinton agar, 10^-4 dilution
Experimental: as §1, §2, §3, §4

[25] = tested on: Escherichia coli ML-1630 (Ec-5), APH(3')-1; assay: MIC, two-fold agar dilution; format: cell-based; conditions: 18 h, Table 3, Mueller-Hinton agar, 10^-4 dilution, enzyme APH(3')-1
Experimental: as §1, §2, §3, §4

Proteus mirabilis (Pm-1) = assay: MIC, two-fold agar dilution; format: cell-based; conditions: Proteus mirabilis, 18 h, Table 3; Mueller-Hinton agar, 10^-4 dilution; read-out: MIC
Experimental: as §1, §2, §3, §4

[26] = tested on: Pseudomonas aeruginosa (Pa-3); assay: MIC, two-fold agar dilution; format: cell-based; conditions: 18 h, Table 3, Mueller-Hinton agar, 10^-4 dilution
Experimental: as §1, §2, §3, §4

[27] = tested on: Staphylococcus aureus 209P (Sa-1); assay: MIC, two-fold agar dilution; format: cell-based; conditions: 18 h, Table 3, Mueller-Hinton agar, 10^-4 dilution
Experimental: as §1, §2, §3, §4

Proteus morganii (Pg-1) = assay: MIC, two-fold agar dilution; format: cell-based; conditions: Morganella morganii, 18 h, Table 3; Mueller-Hinton agar, 10^-4 dilution
Experimental: as §1, §2, §3, §4

[28] = tested on: Escherichia coli Juhl (Ec-3); assay: MIC, two-fold agar dilution; format: cell-based; conditions: 18 h, Table 3, Mueller-Hinton agar, 10^-4 dilution
Experimental: as §1, §2, §3, §4

Proteus vulgaris (Pv-1) = assay: MIC, two-fold agar dilution; format: cell-based; conditions: 18 h, Table 3, Mueller-Hinton agar, 10^-4 dilution
Proteus rettgeri (Pr-2) = assay: MIC, two-fold agar dilution; format: cell-based; conditions: Providencia rettgeri, 18 h; Table 3; Mueller-Hinton agar, 10^-4 dilution

C=C1OC(OC2C(CO)OC(Oc3ccc(C(=O)NCCCNCCCCN)cc3)C2O)C(O)C(OC2OC(CO)C(OC3OC(C)C(N)C(O)C3NC(=O)C(C)N)C(O)C2O)C1O (stereo not shown) [Bu-2349B]
MIC [1]: > 100 µg/mL
MIC [2]: > 100 µg/mL
MIC [3]: 1.6 µg/mL (≈ 1.74 µM)
MIC (Mycobacterium 607 (M6-1)): 12.5 µg/mL (≈ 13.6 µM)
MIC [4]: > 100 µg/mL
MIC [5]: 50 µg/mL (≈ 54.4 µM)
MIC [6]: 25 µg/mL (≈ 27.2 µM)
MIC [7]: 3.1 µg/mL (≈ 3.37 µM)
MIC [8]: 12.5 µg/mL (≈ 13.6 µM)
MIC [9]: 6.3 µg/mL (≈ 6.86 µM)
MIC [10]: > 100 µg/mL
MIC [11]: 12.5 µg/mL (≈ 13.6 µM)
MIC [12]: 0.8 µg/mL (≈ 0.871 µM)
MIC [13]: > 100 µg/mL
MIC [14]: 25 µg/mL (≈ 27.2 µM)
solubility in methanol, ethanol, dimethylsulfoxide and dimethylformamide (solubility; methanol, ethanol, dimethylsulfoxide and dimethylformamide): slightly soluble
solubility in other common organic solvents (solubility; other common organic solvents): practically insoluble
solubility in water (solubility; water): soluble
MIC [15]: 50 µg/mL (≈ 54.4 µM)
MIC [16]: 12.5 µg/mL (≈ 13.6 µM)
inhibitory activity both in vitro and in vivo ([17]; gram-positive and gram-negative bacteria, including aminoglycoside-resistant bacteria, summary statement): marked inhibitory activity
antibacterial activity ([17]; including bacteria which produce aminoglycoside-modifying enzymes): active
MIC [18]: > 100 µg/mL
MIC [19]: 3.1 µg/mL (≈ 3.37 µM)
MIC [20]: 25 µg/mL (≈ 27.2 µM)
MIC [21]: 12.5 µg/mL (≈ 13.6 µM)
MIC [22]: 6.3 µg/mL (≈ 6.86 µM)
MIC [23]: 12.5 µg/mL (≈ 13.6 µM)
MIC [24]: 25 µg/mL (≈ 27.2 µM)
MIC [25]: 6.3 µg/mL (≈ 6.86 µM)
MIC (Proteus mirabilis (Pm-1)): 25 µg/mL (≈ 27.2 µM)
MIC [26]: 100 µg/mL (≈ 109 µM)
MIC [27]: 12.5 µg/mL (≈ 13.6 µM)
MIC (Proteus morganii (Pg-1)): 100 µg/mL (≈ 109 µM)
MIC [28]: 6.3 µg/mL (≈ 6.86 µM)
MIC (Proteus vulgaris (Pv-1)): 6.3 µg/mL (≈ 6.86 µM)
MIC (Proteus rettgeri (Pr-2)): 3.1 µg/mL (≈ 3.37 µM)
